Measurements from patent publication US20080085833A1, “Use Of Glycerol As An Anti-Moss And/Or Anti-Lichen Agent” (priority 2004, published 2008).

System: mosses and lichens
Assay: Anti-moss and anti-lichen effect of glycerol-based compositions, overall observation on mosses and lichens
Type: in vivo
Description: An anti-moss and/or anti-lichen composition is first prepared by solubilizing the required amount of glycerol in water at room temperature, in an appropriate vessel, to give a solution containing 99%, 65% or 20% by weight of glycerol.
The anti-moss and/or anti-lichen composition is maintained at this same temperature in a vessel fitted with a nozzle to enable the product to be sprayed onto a vertical or horizontal surface.
A sufficient amount of anti-moss and/or anti-lichen composition containing 99%, 65% or 20% by weight of glycerol, with or without gluconic acid, is applied by the process of the invention to 3 different surfaces covered with crustaceous lichens, gelatinous lichens and mosses.
For the series of 3 treatments, visual observations were made periodically after treatment with the glycerol compositions described, and then at regular intervals for 3 weeks.

## OCC(O)CO [Pure glycerol, glycerol]
Glycerol diluted to 20%
  anti-moss and/or anti-lichen activity on dilution: without losing its anti-moss and/or anti-lichen activity
Pure glycerol
  efficacy for removing mosses and/or lichens: effective
